Experimental data: patent US10689377B2 (Mirati Therapeutics, Inc., priority 2017, dated 2020)
Where two headings read alike, the source gives them in different places.

What was measured:
KRas G12C = KRas G12C (Homo sapiens, UniProt P01116, G12C); test: Cellular inhibition of KRas G12C measured by Phospho-ERK in NCI-H358 cells; format: cell-based; settings: pERK(Thr202/Tyr204) normalized with GAPDH, NCI-H358 cells, 3 hours; read-out: IC50
How it was run: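 Following 8-12 h attachment, NCI-H358 cells got serially diluted compound (0.5% DMSO) for 3 hours. Cells were then fixed, permeabilized with cold methanol, and stained for pERK(Thr202/Tyr204) and GAPDH. Ratios were converted to percent of DMSO control, with IC50 obtained by four-parameter regression.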

[1] = In vitro stability in human whole blood; format: in vitro ADME; settings: male, whole blood diluted to 50% with PBS, 37° C.
Text: Materials: The following reagents were used as received: acetonitrile (HPLC grade, Burdick & Jackson, Madison, Wis.), phosphate buffered saline (PBS), pH 7.4 (Sigma-Aldrich, Co., St. Louis, Mo.), water (HPLC grade, JT Baker, Phillipsburg, N.J.), DMSO (EM Science, Merck KGaA, Darmstadt, Germany) and isopropanol (IPA, reagent grade, EMD Chemicals, Gibbstown, N.J.). Propantheline and esmolol (Sigma-Aldrich) were used as the positive control compounds in the assay. Diazepam (Sigma-Aldrich) was used as an internal standard for quantitation. Human whole blood was obtained from BioIVT (Westbury, N.Y.) […]. All other reagents and solvents were of the highest analytical grade supplied by Sigma (St. Louis, Mo.) and were used as received.
Blood Incubations: The in vitro stability of representative KRas G12C inhibitor compounds of the present invention in the presence whole blood was conducted in the following manner. Esmolol or propantheline, which are known to undergo ester hydrolysis by esterases in blood and plasma, were used as the positive controls in the assays. A 10 mM stock solution of propantheline, esmolol, or a compound of the present invention in DMSO was diluted to 500 μM with DMSO. Aliquots of whole blood (600 μL), in triplicate, were placed in the appropriate wells of a polypropylene 96-deep well plate (Axygen Scientific, Union City, Calif.). The blood was diluted to 50% using PBS, pH 7.4 (600 μL). The diluted blood was pre-incubated for 15 minutes at 37° C. Each well was dosed with 12 μL of the 500 μM DMSO stock simultaneously for a final test concentration of 5 μM. The plates were mixed at 600 rpm for 10 seconds on a plate shaker (IKA MTS 2/4 Digital Microtiter Shaker, VWR). Aliquots of 100 μL from each well of whole blood were transferred to three separate 96-deep well plates labeled 0, 60, or 240 minutes. At the end of each designated time point, the red blood cells were lysed with 100 μL of water, mixed at 600 rpm for one minute, and stopped with 800 μL of acetonitrile containing IS (0.625 μM diazepam). The plates were mixed on the plate shaker at 600 rpm for one minute and spun in a centrifuge at 2095×g for 7 minutes at room temperature using an Allegra benchtop centrifuge (Beckman Coulter, Fullerton, Calif.). Supernatant (100 μL) was transferred to a shallow 96-well plate (Costar) using a liquid sample handling system (Apricot, Perkin-Elmer, Boston, Mass.). The addition of 100 μL of water was added to each sample of supernatant for a final volume of 200 μL. The plates were sealed and the contents of each well were analyzed by LC-MS/MS.
Analytical quantitation: The LC-MS/MS system was comprised of an HTS-PAL autosampler (Leap Technologies, Carrboro, N.C.), an HP1200 HPLC (Agilent, Palo Alto, Calif.), and an API4000 triple quadrupole mass spectrometer (PE Sciex, a division of Applied Biosystems, Foster City, Calif.). […] The total run time, including re-equilibration, for a single injection was 2 minutes. Mass spectrometric detection of the analytes was accomplished using the ESI ionization mode. Ion current was optimized during infusion of a stock solution of propantheline, esmolol, or the representative test compound. Analyte responses, including the IS were measured by multiple reaction monitoring (MRM) of transitions unique to each compound.
Calculations: Data were acquired and peak areas were calculated for test compounds and the internal standard using Analyst 1.6.2 software (Sciex). The mean peak area ratios were calculated by averaging the peak area ratios (n=3) of each test compound and the IS for each sample.
Peak area tables were exported to BioAssay Enterprise (CambridgeSoft, Cambridge, Mass.), where the average analyte-to-internal standard peak area ratios were used to calculate percent remaining (% REM) and half-life (t1/2). Percent remaining (f) was calculated by determining the ratio of the peak area ratio at each time point to the peak area ratio of the time-zero samples. […]

[2] = pH 7.4, human whole blood diluted to 50% with PBS, 5 μM, 240-minute incubation, read-out: Compound Half-life

Sequence of KRas G12C (P01116 1-188 isoform P01116-2 G12C): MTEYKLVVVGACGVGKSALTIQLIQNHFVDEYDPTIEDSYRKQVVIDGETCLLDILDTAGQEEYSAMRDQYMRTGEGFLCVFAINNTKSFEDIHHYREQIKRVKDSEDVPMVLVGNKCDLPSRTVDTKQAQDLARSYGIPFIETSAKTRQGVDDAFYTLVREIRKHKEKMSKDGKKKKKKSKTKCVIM

SMILES | IC50 (KRas G12C) [nM] | half-life at 5 µM [1, 2] [h] | half-life at 5 µM ([1]; pH 7.4, human whole blood, positive control, read-out: half life) [h]
CN1CCC[C@H]1COc1nc2c(c(N3CCN(C(=O)/C=C/CN4CC(F)C4)[C@@H](CC#N)C3)n1)CCN(c1cccc3cccc(Cl)c13)C2 [Example 481, 2-[(2S)-4-[7-(8-chloro-1-naphthyl)-2-[[(2S)-1-methylpyrrolidin-2-yl]methoxy]-6,8-dihydro-5H-pyrido[3,4-d]pyrimidin-4-yl]-1-[(E)-4-(3-fluoroazetidin-1-yl)but-2-enoyl]piperazin-2-yl]acetonitrile] | 0.1 to 1000 | > 33.3 | 
CN1CCC[C@H]1COc1nc2c(c(N3CCN(C(=O)/C=C/CO)[C@@H](CC#N)C3)n1)CCN(c1cccc3cccc(Cl)c13)C2 [Example 513, 2-[(2S)-4-[7-(8-chloro-1-naphthyl)-2-[[(2S)-1-methylpyrrolidin-2-yl]methoxy]-6,8-dihydro-5H-pyrido[3,4-d]pyrimidin-4-yl]-1-[(E)-4-hydroxybut-2-enoyl]piperazin-2-yl]acetonitrile] | 0.1 to 1000 | 16.7 to 33.3 | 
CN1CCC[C@H]1COc1nc2c(c(N3CCN(C(=O)/C=C/C(F)(F)F)[C@@H](CC#N)C3)n1)CCN(c1cccc3cccc(Cl)c13)C2 [Example 490, 2-((S)-4-(7-(8-chloronaphthalen-1-yl)-2-(((S)-1-methylpyrrolidin-2-yl)methoxy)-5,6,7,8-tetrahydropyrido[3,4-d]pyrimidin-4-yl)-1-((E)-4,4,4-trifluorobut-2-enoyl)piperazin-2-yl)acetonitrile] | 0.1 to 1000 | ≤ 3.33 | 
Cc1cccc2cccc(N3CCc4c(nc(OC[C@@H]5CCCN5C)nc4N4CCN(C(=O)/C=C/CO)[C@@H](CC#N)C4)C3)c12 [Example 510, 2-((S)-1-((E)-4-hydroxybut-2-enoyl)-4-(7-(8-methylnaphthalen-1-yl)-2-(((S)-1-methylpyrrolidin-2-yl)methoxy)-5,6,7,8-tetrahydropyrido[3,4-d]pyrimidin-4-yl)piperazin-2-yl)acetonitrile] | 0.1 to 1000 | 16.7 to 33.3 | 
C=C(F)C(=O)N1CCN(c2nc(OC[C@@H]3CCCN3C)nc3c2CCN(c2cccc4cccc(C)c24)C3)C[C@@H]1CC#N [Example 507] | 0.1 to 1000 | > 33.3 | 
Cc1cccc2cccc(N3CCc4c(nc(OC[C@@H]5CCCN5C)nc4N4CCN(C(=O)/C=C\C#N)[C@@H](CC#N)C4)C3)c12 [Example 502, (Z)-4-((S)-2-(cyanomethyl)-4-(7-(8-methylnaphthalen-1-yl)-2-(((S)-1-methylpyrrolidin-2-yl)methoxy)-5,6,7,8-tetrahydropyrido[3,4-d]pyrimidin-4-yl)piperazin-1-yl)-4-oxobut-2-enenitrile] | 0.1 to 1000 | 3.33 to 16.7 | 
Cc1cccc2cccc(N3CCc4c(nc(OC[C@@H]5CCCN5C)nc4N4CCN(C(=O)/C=C/CCl)[C@@H](CC#N)C4)C3)c12 [Example 498, 2-((S)-1-((E)-4-chlorobut-2-enoyl)-4-(7-(8-methylnaphthalen-1-yl)-2-(((S)-1-methylpyrrolidin-2-yl)methoxy)-5,6,7,8-tetrahydropyrido[3,4-d]pyrimidin-4-yl)piperazin-2-yl)acetonitrile] | 0.1 to 1000 | > 33.3 | 
C=C(C(=O)N1CCN(c2nc(OC[C@@H]3CCCN3C)nc3c2CCN(c2cccc4cccc(Cl)c24)C3)C[C@@H]1CC#N)C(F)(F)F [Example 504, 2-[(2S)-4-[7-(8-chloro-1-naphthyl)-2-[[(2S)-1-methylpyrrolidin-2-yl]methoxy]-6,8-dihydro-5H-pyrido[3,4-d]pyrimidin-4-yl]-1-[2-(trifluoromethyl)prop-2-enoyl]piperazin-2-yl]acetonitrile] | 0.1 to 1000 | ≤ 3.33 | 
Cc1cccc2cccc(N3CCc4c(nc(OC[C@@H]5CCCN5C)nc4N4CCN(C(=O)/C=C/CN5CC(F)C5)[C@@H](CC#N)C4)C3)c12 [Example 515, 2-[(2S)-1-[(E)-4-(3-fluoroazetidin-1-yl)but-2-enoyl]-4-[7-(8-methyl-1-naphthyl)-2-[[(2S)-1-methylpyrrolidin-2-yl]methoxy]-6,8-dihydro-5H-pyrido[3,4-d]pyrimidin-4-yl]piperazin-2-yl]acetonitrile] |  | > 33.3 | 
C=C(F)C(=O)N1CCN(c2nc(OC[C@@H]3CCCN3C)nc3c2CCN(c2cccc4cccc(Cl)c24)C3)C[C@@H]1CC#N [Example 478, 2-[(2S)-4-[7-(8-chloro-1-naphthyl)-2-[[(2S)-1-methylpyrrolidin-2-yl]methoxy]-6,8-dihydro-5H-pyrido[3,4-d]pyrimidin-4-yl]-1-(2-fluoroprop-2-enoyl)piperazin-2-yl]acetonitrile] |  | > 33.3 | 
C=C(F)C(=O)N1CCN(c2nc(OC[C@H]3CCCN3C)nc3c2CCN(c2cccc4cccc(Cl)c24)C3)C[C@@H]1CC#N [Example 557, 2-[(2S)-4-[7-(8-Chloro-1-naphthyl)-2-[[(2R)-1-methylpyrrolidin-2-yl]methoxy]-6,8-dihydro-5H-pyrido[3,4-d]pyrimidin-4-yl]-1-(2-fluoroprop-2-enoyl)piperazin-2-yl]acetonitrile] |  | > 33.3 | 

Further lines, results first:

IC50 (KRas G12C) [nM] | half-life at 5 µM [1, 2] [h] | half-life at 5 µM ([1]; pH 7.4, human whole blood, positive control, read-out: half life) [h] | SMILES
 | > 33.3 |  | COC/C=C/C(=O)N1CCN(c2nc(OC[C@H]3C[C@@H](OC)CN3C)nc3c2CCN(c2cccc4cccc(C)c24)C3)C[C@@H]1CC#N [Example 552, 2-[(2S)-1-[(E)-4-methoxybut-2-enoyl]-4-[2-[[(2R,4R)-4-methoxy-1-methyl-pyrrolidin-2-yl]methoxy]-7-(8-methyl-1-naphthyl)-6,8-dihydro-5H-pyrido[3,4-d]pyrimidin-4-yl]piperazin-2-yl]acetonitrile]
0.1 to 1000 | 3.33 to 16.7 |  | CN1CCC[C@H]1COc1nc2c(c(N3CCN(C(=O)/C=C/CN4CCCCC4)[C@@H](CC#N)C3)n1)CCN(c1cccc3ccccc13)C2 [Example 236, 2-((S)-4-(2-(((S)-1-methylpyrrolidin-2-yl)methoxy)-7-(naphthalen-1-yl)-5,6,7,8-tetrahydropyrido[3,4-d]pyrimidin-4-yl)-1-(E-4-(piperidin-1-yl)but-2-enoyl)piperazin-2-yl)acetonitrile]
0.1 to 1000 | 3.33 to 16.7 |  | Cc1cccc2cccc(N3CCc4c(nc(OC[C@@H]5CCCN5C)nc4N4CCN(C(=O)/C=C/C(F)F)[C@@H](CC#N)C4)C3)c12 [Example 495, 2-((S)-1-((E)-4,4-difluorobut-2-enoyl)-4-(7-(8-methylnaphthalen-1-yl)-2-(((S)-1-methylpyrrolidin-2-yl)methoxy)-5,6,7,8-tetrahydropyrido[3,4-d]pyrimidin-4-yl)piperazin-2-yl)acetonitrile]
 | 3.33 to 16.7 |  | C=CC(=O)N1CCN(c2nc(OC[C@@H]3CCCN3C)nc3c2CCN(c2cccc4cccc(Cl)c24)C3)C[C@@H]1CC#N [Example 331, 2-[(2S)-4-[7-(8-chloro-1-naphthyl)-2-[[(2S)-1-methylpyrrolidin-2-yl]methoxy]-6,8-dihydro-5H-pyrido[3,4-d]pyrimidin-4-yl]-1-prop-2-enoyl-piperazin-2-yl]acetonitrile]
 | ≤ 3.33 | 1.63 | CC(C)[N+](C)(CCOC(=O)C1c2ccccc2Oc2ccccc21)C(C)C [Propantheline, reference compound]
